Reference: PMC6104608, “Design, synthesis, and evaluation of curcumin analogues as potential inhibitors of bacterial sialidase” (Journal of Enzyme Inhibition and Medicinal Chemistry, 2018)

Tests used:
S. pneumoniae Nan A [1] = target: T1, S. pneumoniae Nan A (Streptococcus pneumoniae, UniProt P62575); assay: Fluorescence-based inhibition assay of S. pneumoniae Nan A with MUNANA substrate; format: biochemical; details: for IC50: 2.2 nM Nan A, 50 µM substrate, pH 7.5, triplicate, read-out: IC50 against S. pneumoniae Nan A
T1 construct: 6x His-tag (C); made in house; host or cells: E. coli BL21 (DE3)
T1 sequence (P62575 319-822 limits assumed): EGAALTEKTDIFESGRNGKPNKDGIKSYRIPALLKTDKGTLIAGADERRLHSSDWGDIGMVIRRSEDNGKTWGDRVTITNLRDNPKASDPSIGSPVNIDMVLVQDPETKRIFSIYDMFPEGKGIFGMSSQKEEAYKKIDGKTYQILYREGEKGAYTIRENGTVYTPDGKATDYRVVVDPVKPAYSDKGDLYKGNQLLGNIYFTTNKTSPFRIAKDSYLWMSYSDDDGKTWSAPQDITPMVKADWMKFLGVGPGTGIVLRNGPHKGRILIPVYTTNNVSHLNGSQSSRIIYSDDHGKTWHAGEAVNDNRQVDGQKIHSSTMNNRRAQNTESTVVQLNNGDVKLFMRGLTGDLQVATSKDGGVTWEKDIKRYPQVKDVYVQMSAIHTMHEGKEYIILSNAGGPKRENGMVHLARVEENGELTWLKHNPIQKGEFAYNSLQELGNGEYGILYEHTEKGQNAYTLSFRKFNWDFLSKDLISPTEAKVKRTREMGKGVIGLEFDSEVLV

S. pneumoniae Nan A [2] = target: T1, S. pneumoniae Nan A; assay: Enzyme kinetic study (inhibition mechanism and Ki) on Nan A; format: biochemical; details: for Inhibition type against Nan A: Lineweaver-Burk and Dixon plots; for Ki: nonlinear regression, SigmaPlot Enzyme Kinetics, read-out: Ki against Nan A
[3] = target: T2, Vibrio cholerae sialidase (Vibrio cholerae serotype O1, UniProt P0C6E9); assay: biochemical
T2 construct: purchased Sigma 72197
T2 sequence (P0C6E9 25-781): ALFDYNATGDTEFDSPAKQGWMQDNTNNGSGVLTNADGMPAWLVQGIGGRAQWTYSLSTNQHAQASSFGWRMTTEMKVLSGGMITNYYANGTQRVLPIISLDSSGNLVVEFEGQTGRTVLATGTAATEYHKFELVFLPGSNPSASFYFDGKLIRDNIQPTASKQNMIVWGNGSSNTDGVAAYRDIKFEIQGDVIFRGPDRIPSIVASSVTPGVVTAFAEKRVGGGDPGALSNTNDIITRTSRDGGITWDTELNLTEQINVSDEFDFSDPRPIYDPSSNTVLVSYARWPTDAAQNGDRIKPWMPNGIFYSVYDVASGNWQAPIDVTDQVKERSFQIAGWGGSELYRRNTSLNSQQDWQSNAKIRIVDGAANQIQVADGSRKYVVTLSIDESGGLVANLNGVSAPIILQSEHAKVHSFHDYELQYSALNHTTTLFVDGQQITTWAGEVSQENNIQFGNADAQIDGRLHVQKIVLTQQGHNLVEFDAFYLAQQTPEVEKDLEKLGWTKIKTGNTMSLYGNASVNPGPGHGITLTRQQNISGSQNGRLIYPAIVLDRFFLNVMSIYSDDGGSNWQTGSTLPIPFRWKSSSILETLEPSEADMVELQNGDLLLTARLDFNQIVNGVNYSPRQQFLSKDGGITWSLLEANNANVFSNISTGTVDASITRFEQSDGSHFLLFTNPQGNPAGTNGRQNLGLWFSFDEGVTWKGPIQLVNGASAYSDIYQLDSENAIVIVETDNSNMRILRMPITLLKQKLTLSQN

| SMILES | IC50 (S. pneumoniae Nan A [1]) | Inhibition type against Nan A (S. pneumoniae Nan A [2]) | Ki (S. pneumoniae Nan A [2]) | IC50 [3] | melting point | fold improvement in Nan A inhibitory activity over curcumin (S. pneumoniae Nan A [1]; IC50 ratio versus curcumin (4a)) |
| --- | --- | --- | --- | --- | --- | --- |
| COc1cc(/C=C/C(=O)/C=C(O)/C=C/c2ccc(O)c(OC)c2)ccc1O [Compound 4a, curcumin] | 600 ± 100 nM | noncompetitive inhibition | 1300 nM | 5300 ± 700 nM | – | – |
| COc1ccc(C=CC(=O)C=C(O)C=Cc2ccc(OC)c(O)c2)cc1O [Compound 4b, 5-Hydroxy-1,7-bis(3-hydroxy-4-methoxyphenyl)hepta-1,4,6-trien-3-one] | 1000 ± 400 nM | – | – | 7600 ± 500 nM | 182 to 183 °C | – |
| COc1ccc(/C=C/C(=O)/C=C(O)/C=C/c2ccc(OC)c(OC)c2)cc1OC [Compound 4c, 1,7-Bis(3,4-dimethoxyphenyl)-5-hydroxyhepta-1,4,6-trien-3-one] | 3400 ± 1000 nM | – | – | 21500 ± 7000 nM | – | – |
| O=C(C=Cc1ccc(O)c(O)c1)C=C(O)C=Cc1ccc(O)c(O)c1 [Compound 4d, 1,7-bis(3,4-dihydroxyphenyl)-5-hydroxyhepta-1,4,6-trien-3-one] | 1500 ± 700 nM | – | – | 11900 ± 2000 nM | 300 °C (dec.) | – |
| O=C(C=Cc1ccc(O)cc1)C=C(O)C=Cc1ccc(O)cc1 [Compound 4e, 5-Hydroxy-1,7-bis(4-hydroxyphenyl)hepta-1,4,6-trien-3-one] | 4000 ± 1200 nM | noncompetitive inhibition | 1200 nM | 15100 ± 100 nM | – | – |
| COc1cc(C=CC(O)=C2CCCC(=Cc3ccc(O)c(OC)c3)C2=O)ccc1O [Compound 4f, 2–(1-Hydroxy-3-(4-hydroxy-3-methoxyphenyl)allylidene)-6-(4-hydroxy-3-methoxybenzylidene)cyclohexan-1-one] | 4700 ± 500 nM | – | – | 24900 ± 1800 nM | 182 to 183 °C | – |
| COc1cc(/C=C/C(O)=C/C(=O)/C=C/c2ccc(OC)c(OC)c2)ccc1O [Compound 5a, 7-(3,4-Dimethoxyphenyl)-5-hydroxy-1-(4-hydroxy-3-methoxyphenyl)hepta-1,4,6-trien-3-one] | 1500 ± 700 nM | – | – | 11700 ± 200 nM | – | – |
| COc1ccc(/C=C/C(O)=C/C(=O)/C=C/c2ccc(OC)c(OC)c2)cc1O [Compound 5b, 7-(3,4-Dimethoxyphenyl)-5-hydroxy-1-(3-hydroxy-4-methoxyphenyl)hepta-1,4,6-trien-3-one] | 600 ± 100 nM | – | – | 9200 ± 200 nM | 155 to 158 °C | – |
| COc1ccc(/C=C/C(O)=C/C(=O)/C=C/c2ccc(O)c(OC)c2)cc1O [Compound 5c, 5-Hydroxy-7-(4-hydroxy-3-methoxyphenyl)-1-(3-hydroxy-4-methoxyphenyl)hepta-1,4,6-trien-3-one] | 1000 ± 400 nM | – | – | 7700 ± 700 nM | 137 to 140 °C | – |
| COc1cc(/C=C/C(=O)/C=C(O)/C=C/c2ccc(O)c(O)c2)ccc1O [Compound 5d, 1-(3,4-Dihydroxyphenyl)-5-hydroxy-7-(4-hydroxy-3-methoxyphenyl)hepta-1,4,6-trien-3-one] | 700 ± 200 nM | – | – | 2700 ± 800 nM | – | – |
| COc1ccc(/C=C/C(=O)/C=C(O)/C=C/c2ccc(O)c(O)c2)cc1O [Compound 5e, 1-(3,4-Dihydroxyphenyl)-5-hydroxy-7-(3-hydroxy-4-methoxyphenyl)hepta-1,4,6-trien-3-one] | 200 ± 100 nM | competitive inhibition | 140 nM | 4800 ± 1500 nM | 203 to 204 °C | 3.0 fold |
| CCOc1cc(/C=C/C(O)=C/C(=O)/C=C/c2ccc(O)c(OC)c2)ccc1O [Compound 5f, 1-(3-Ethoxy-4-hydroxyphenyl)-5-hydroxy-7-(4-hydroxy-3-methoxyphenyl)hepta-1,4,6-trien-3-one] | 1500 ± 800 nM | – | – | 6700 ± 600 nM | 182 to 183 °C | – |
| COc1cc(C=CC(O)=CC(=O)C=Cc2cccnc2)ccc1O [Compound 5g, 5-Hydroxy-7-(4-hydroxy-3-methoxyphenyl)-1-(pyridin-3-yl)hepta-1,4,6-trien-3-one] | 4400 ± 100 nM | – | – | 43600 ± 100 nM | 185 °C (dec.) | – |
| COc1cc(/C=C/C(=O)/C=C(O)/C=C/c2ccccc2)ccc1O [Compound 5h, 5-Hydroxy-7-(4-hydroxy-3-methoxyphenyl)-1-phenylhepta-1,4,6-trien-3-one] | 7100 ± 100 nM | – | – | – | 135 to 137 °C | – |
| COC(=O)CCCOc1ccc(C=CC(=O)C=C(O)C=Cc2ccc(O)c(OC)c2)cc1OC [Compound 5i, Methyl 4-(4-(5-hydroxy-7–(4-hydroxy-3-methoxyphenyl)-3-oxohepta-1,4,6-trien-1-yl)-2-methoxyphenoxy)-butanoate] | 1000 ± 500 nM | – | – | 9500 ± 1500 nM | 100 to 101 °C | – |
| COc1cc(/C=C/C(=O)/C=C(O)/C=C/c2ccc([N+](=O)[O-])cc2)ccc1O [Compound 5j, 5-Hydroxy-7-(4-hydroxy-3-methoxyphenyl)-1-(4-nitrophenyl)hepta-1,4,6-trien-3-one] | 900 ± 300 nM | – | – | 6900 ± 1800 nM | 204 to 205 °C | – |
| COc1cc(/C=C/C(=O)/C=C(O)/C=C/c2ccc(C(F)(F)F)cc2)ccc1O [Compound 5k, 5-Hydroxy-7-(4-hydroxy-3-methoxyphenyl)-1-(4-(trifluoromethyl)phenyl)hepta-1,4,6-trien-3-one] | 1000 ± 100 nM | – | – | – | 158 to 160 °C | – |
| COc1cc(/C=C/C(=O)/C=C(O)/C=C/c2ccc(F)cc2)ccc1O [Compound 5l, 1-(4-Fluorophenyl)-5-hydroxy-7-(4-hydroxy-3-methoxyphenyl)hepta-1,4,6-trien-3-one] | 1800 ± 200 nM | – | – | – | 146 to 147 °C | – |
| COc1cc(/C=C/C(=O)/C=C(O)/C=C/c2ccc(Br)cc2)ccc1O [Compound 5m, 1-(4-Bromophenyl)-5-hydroxy-7-(4-hydroxy-3-methoxyphenyl)hepta-1,4,6-trien-3-one] | 1000 ± 200 nM | – | – | – | 148 to 149 °C | – |
| COc1cc(/C=C/C(=O)/C=C(O)/C=C/c2ccc(NC(C)=O)cc2)ccc1O [Compound 5n, N-(4–(5-Hydroxy-7–(4-hydroxy-3-methoxyphenyl)-3-oxohepta-1,4,6-trien-1-yl)phenyl)acetamide] | 1800 ± 400 nM | – | – | 6800 ± 800 nM | 183 to 185 °C | – |
| COc1ccc(/C=C/C(O)=C/C(=O)/C=C/c2ccc(O)c(OC)c2)cc1 [Compound 5o, 5-Hydroxy-7-(4-hydroxy-3-methoxyphenyl)-1-(4-methoxyphenyl)hepta-1,4,6-trien-3-one] | 1200 ± 100 nM | – | – | 4200 ± 800 nM | 143 to 145 °C | – |
| COc1cc(/C=C/C(=O)/C=C(O)/C=C/c2ccc(O)cc2)ccc1O [Compound 5p, 5-Hydroxy-7-(4-hydroxy-3-methoxyphenyl)-1-(4-hydroxyphenyl)hepta-1,4,6-trien-3-one] | 600 ± 200 nM | – | – | 4300 ± 700 nM | – | – |
| COc1cc(/C=C/C(=O)/C=C(O)/C=C/c2ccc(N)cc2)ccc1O [Compound 5q, 1-(4-Aminophenyl)-5-hydroxy-7-(4-hydroxy-3-methoxyphenyl)hepta-1,4,6-trien-3-one] | 1600 ± 100 nM | noncompetitive inhibition | 800 nM | 2900 ± 900 nM | 99 to 100 °C | – |
| COc1cc(/C=C/C(=O)/C=C(O)/C=C/c2ccc(N(C)C)cc2)ccc1O [Compound 5r, 1-(4-(Dimethylamino)phenyl)-5-hydroxy-7-(4-hydroxy-3-methoxyphenyl)hepta-1,4,6-trien-3-one] | 1500 ± 200 nM | – | – | 1900 ± 200 nM | – | – |
| COc1cc(/C=C/C(=O)/C=C(O)/C=C/c2ccc(N3CCCCC3)cc2)ccc1O [Compound 5s, 5-Hydroxy-7-(4-hydroxy-3-methoxyphenyl)-1-(4-(piperidin-1-yl)phenyl)hepta-1,4,6-trien-3-one] | 1500 ± 100 nM | – | – | – | 204 to 205 °C | – |
| COc1cc(CCC(=O)/C=C(\O)CCc2ccc(O)c(OC)c2)ccc1O [Compound 6, 1,7-Bis(4-hydroxy-3-methoxyphenyl)heptane-3,5-dione] | 82100 ± 7600 nM | – | – | – | – | – |
| COc1cc(/C=C/C(=O)/C=C(O)/C=C/c2ccc(OC(C)=O)c(OC)c2)ccc1OC(C)=O [Compound 7, 3-Hydroxy-5-oxohepta-1,3,6-triene-1,7-diyl)bis(2-methoxy-4,1-phenylene) diacetate] | 2600 ± 600 nM | – | – | 37500 ± 3500 nM | – | – |
| COc1cc(C=Cc2cc(C=Cc3ccc(O)c(OC)c3)[nH]n2)ccc1O [Compound 8] | 6200 ± 1500 nM | – | – | 41600 ± 18700 nM | – | – |
